Calls of active or inactive are those of the source. The calls are words filed in the database; no cut-off is given here.
Legend:
[1] = molecular target: T1, Retinoic acid receptor alpha (Homo sapiens) (UniProt P10276); test: Agonist activity at RARalpha (unknown origin) at 1 uM by luciferase reporter gene assay
T1 sequence (whole entry): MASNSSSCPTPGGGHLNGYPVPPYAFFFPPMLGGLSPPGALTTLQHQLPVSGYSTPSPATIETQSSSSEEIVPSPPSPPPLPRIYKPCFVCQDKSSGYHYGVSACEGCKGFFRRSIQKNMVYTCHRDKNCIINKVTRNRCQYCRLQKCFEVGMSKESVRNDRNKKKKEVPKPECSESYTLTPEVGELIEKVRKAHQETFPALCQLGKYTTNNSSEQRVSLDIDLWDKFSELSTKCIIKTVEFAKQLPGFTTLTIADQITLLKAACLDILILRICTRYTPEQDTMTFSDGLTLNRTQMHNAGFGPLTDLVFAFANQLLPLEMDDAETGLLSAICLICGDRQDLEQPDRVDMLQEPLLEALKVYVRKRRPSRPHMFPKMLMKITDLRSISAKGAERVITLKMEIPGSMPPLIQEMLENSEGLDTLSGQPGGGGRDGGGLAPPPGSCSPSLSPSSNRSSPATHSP

[2] = molecular target: T2, Peroxisome proliferator-activated receptor alpha (Homo sapiens) (UniProt Q07869); test: Agonist activity at PPARalpha (unknown origin) at 1 uM by luciferase reporter gene assay
T2 sequence (whole entry): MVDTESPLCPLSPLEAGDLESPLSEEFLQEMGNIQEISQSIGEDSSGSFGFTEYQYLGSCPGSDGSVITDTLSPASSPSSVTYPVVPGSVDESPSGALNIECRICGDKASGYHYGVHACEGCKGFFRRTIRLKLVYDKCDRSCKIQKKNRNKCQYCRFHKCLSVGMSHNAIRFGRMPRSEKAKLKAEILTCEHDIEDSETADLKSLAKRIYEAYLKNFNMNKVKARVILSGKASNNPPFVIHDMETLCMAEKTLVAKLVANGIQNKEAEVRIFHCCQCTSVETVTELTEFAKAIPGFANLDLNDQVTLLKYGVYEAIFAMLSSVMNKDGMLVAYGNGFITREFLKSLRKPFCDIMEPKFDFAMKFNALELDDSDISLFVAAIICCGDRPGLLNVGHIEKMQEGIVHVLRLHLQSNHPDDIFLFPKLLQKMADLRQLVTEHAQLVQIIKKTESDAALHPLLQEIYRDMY

3T3-L1 = test: Antiadipogenic activity in mouse 3T3L1 cells assessed as inhibition of CDCA-induced intracellular lipid droplets after 6 days by Oil Red O staining based assay; assay type: functional, cell-based
[3] = molecular target: T3, G-protein coupled bile acid receptor 1 (Homo sapiens) (UniProt Q8TDU6); test: Antagonist activity at TGR5 (unknown origin) assessed as inhibition of lithocholic acid-induced response at 1 uM by luciferase reporter gene assay; assay type: functional
T3 sequence (whole entry): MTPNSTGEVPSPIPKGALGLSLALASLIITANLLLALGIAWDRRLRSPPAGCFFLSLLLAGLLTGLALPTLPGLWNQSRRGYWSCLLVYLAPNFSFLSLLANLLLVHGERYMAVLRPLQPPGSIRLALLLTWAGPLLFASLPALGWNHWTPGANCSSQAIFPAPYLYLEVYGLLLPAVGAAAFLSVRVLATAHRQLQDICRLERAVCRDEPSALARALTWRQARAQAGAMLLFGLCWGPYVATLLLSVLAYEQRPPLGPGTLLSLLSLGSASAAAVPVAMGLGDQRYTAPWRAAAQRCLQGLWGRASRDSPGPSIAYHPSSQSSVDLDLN

[4] = molecular target: T4, Oxysterols receptor LXR-alpha (Homo sapiens) (UniProt Q13133); test: Agonist activity at LXRalpha (unknown origin) at 1 uM by luciferase reporter gene assay
T4 sequence (whole entry): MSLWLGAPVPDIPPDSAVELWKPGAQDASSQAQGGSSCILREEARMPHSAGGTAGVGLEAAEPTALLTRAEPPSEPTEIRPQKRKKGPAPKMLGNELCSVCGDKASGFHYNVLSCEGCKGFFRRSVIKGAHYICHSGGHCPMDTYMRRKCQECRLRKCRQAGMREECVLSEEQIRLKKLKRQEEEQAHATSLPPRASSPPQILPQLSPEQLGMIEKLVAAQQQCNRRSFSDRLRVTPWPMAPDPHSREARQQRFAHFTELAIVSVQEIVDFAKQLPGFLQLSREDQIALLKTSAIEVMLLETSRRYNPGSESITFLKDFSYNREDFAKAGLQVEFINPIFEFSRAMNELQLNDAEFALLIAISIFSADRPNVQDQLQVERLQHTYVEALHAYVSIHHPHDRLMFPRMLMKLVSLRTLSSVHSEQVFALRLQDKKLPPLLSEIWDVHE

[5] = molecular target: T5, Oxysterols receptor LXR-beta (Homo sapiens) (UniProt P55055); test: Antagonist activity at LXRbeta (unknown origin) assessed as inhibition of TO901317-induced response at 1 uM by luciferase reporter gene assay
T5 sequence (whole entry): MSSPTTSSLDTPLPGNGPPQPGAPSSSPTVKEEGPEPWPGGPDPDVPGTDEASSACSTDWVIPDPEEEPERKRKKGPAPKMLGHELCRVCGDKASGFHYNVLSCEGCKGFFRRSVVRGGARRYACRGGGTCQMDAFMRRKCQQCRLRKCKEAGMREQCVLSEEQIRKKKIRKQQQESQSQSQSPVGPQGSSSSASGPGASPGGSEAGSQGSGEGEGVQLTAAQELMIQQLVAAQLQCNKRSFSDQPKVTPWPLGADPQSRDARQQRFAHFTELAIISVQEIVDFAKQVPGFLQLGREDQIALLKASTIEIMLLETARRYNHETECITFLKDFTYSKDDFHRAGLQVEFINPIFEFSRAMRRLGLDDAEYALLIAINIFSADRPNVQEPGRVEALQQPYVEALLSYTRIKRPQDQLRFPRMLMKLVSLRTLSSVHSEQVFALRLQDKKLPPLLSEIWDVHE

[6] = molecular target: T6, Peroxisome proliferator-activated receptor gamma (Homo sapiens) (UniProt P37231); test: Antagonist activity at PPARgamma (unknown origin) assessed as inhibition of GW1929-induced response at 1 uM by luciferase reporter gene assay
T6 sequence (whole entry): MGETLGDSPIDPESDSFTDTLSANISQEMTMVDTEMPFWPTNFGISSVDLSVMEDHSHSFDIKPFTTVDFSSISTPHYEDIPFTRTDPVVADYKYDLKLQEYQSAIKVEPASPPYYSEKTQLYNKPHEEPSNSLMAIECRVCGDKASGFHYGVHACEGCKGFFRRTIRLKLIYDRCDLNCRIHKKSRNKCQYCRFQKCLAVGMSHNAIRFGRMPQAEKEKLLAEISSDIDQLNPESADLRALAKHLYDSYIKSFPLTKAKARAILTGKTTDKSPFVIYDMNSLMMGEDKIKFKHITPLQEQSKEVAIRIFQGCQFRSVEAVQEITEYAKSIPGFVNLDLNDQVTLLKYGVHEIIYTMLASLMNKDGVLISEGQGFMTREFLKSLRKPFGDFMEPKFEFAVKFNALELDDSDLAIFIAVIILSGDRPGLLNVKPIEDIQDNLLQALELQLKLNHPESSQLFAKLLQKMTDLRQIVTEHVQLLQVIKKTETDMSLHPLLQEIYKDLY

Activity [1]: inactive
Activity [2]: inactive
inhibition [3]: inactive
Activity [4]: inactive
inhibition [5]: inactive
inhibition [6]: inactive
SMILES: Cc1ccc2nc([C@H](CC3CCN(C(=O)C(C)C)CC3)N3C(=O)CN(c4ccc(Oc5ccccc5)cc4)C3=O)n(C)c2c1
inhibition (3T3-L1): Dose-dependent effect
